In patent US20240423995A1, “C-KIT INHIBITORS AND USES FOR TREATING AND PREVENTING INFLAMMATORY CONDITIONS” (GEORGETOWN UNIVERSITY, priority 2023, published 2024):

How the values were obtained:
[1] = biological target: T1, KIT (Homo sapiens, UniProt P10721); experiment: KINOMEscan competition binding screen, KIT; conditions: for remaining binding at 10 µM: lower = stronger binding, read-out: % Ctrl @ 10 μM
T1 construct: purchased Eurofins DiscoverX Corporation
Procedure: (§1) The KINOMEscan™ screening platform (Eurofins DiscoverX Corporation, San Diego, USA) was performed using an active site-directed competition binding assay to quantitatively measure interactions between BK40143, BK40197, BK40195, and BK40196 and more than 450 human kinases and disease relevant mutant variants. […] Screening “hits” were identified by measuring the amount of kinase captured in test (BK40143, BK40197, BK40195, and BK40196) versus control samples by using a quantitative and ultra-sensitive qPCR method that detects the associated DNA label. BK40143, BK40197, BK40195, and BK40196 were screened at 10 μM concentration, and results for primary screen binding interactions were reported as ‘% Ctrl’ (POC), where lower numbers indicate stronger hits and calculated as follows:
(§2) [formula] • test compound=BK40143 or BK40197 or BK40195 or BK40196 • negative control=DMSO (100% Ctrl) • positive control=control compound (0% Ctrl)
(§3) Based on screening data of profiled compounds, a proportional relationship between primary screening results and corresponding compound/target affinities can be described as binding constants (Kd values) for the indicated ranges of percent of control (PoC) values, with tighter binding (higher affinity) interactions associated with lower PoC values, and weaker binding (lower affinity) associated with higher PoC values. Briefly, kinase-tagged T7 phage strains were grown in parallel in 24-well blocks in an E. coli host derived from the BL21 strain. E. coli were grown to log-phase and infected with T7 phage from a frozen stock (multiplicity of infection=0.4) and incubated with shaking at 32° C. until lysis (90-150 minutes). The lysates were centrifuged (6,000×g) and filtered ([…]) to remove cell debris. The remaining kinases were produced in HEK-293 cells and subsequently tagged with DNA for qPCR detection. Streptavidin-coated magnetic beads were treated with biotinylated small molecule ligands for 30 minutes at room temperature to generate affinity resins for kinase assays. The liganded beads were blocked with excess biotin and washed with blocking buffer (SeaBlock (Pierce), 1% BSA, 0.05% Tween 20, 1 mM DTT) to remove unbound ligand and to reduce non-specific phage binding. Binding reactions were assembled by combining kinases, liganded affinity beads, and test compounds in 1× binding buffer (20% SeaBlock, 0.17×PBS, 0.05% Tween 20, 6 mM DTT). Test compounds were prepared as 100× stocks in 100% DMSO and directly diluted into the assay. All reactions were performed in polypropylene 384-well plates in a final volume of 0.02 ml. The assay plates were incubated at room temperature with shaking for 1 hour and the affinity beads were washed with wash buffer (1×PBS, 0.05% Tween 20). The beads were then re-suspended in elution buffer (1×PBS, 0.05% Tween 20, 0.5 μM non-biotinylated affinity ligand) and incubated at room temperature with shaking for 30 minutes. The kinase concentration in the eluates was measured by qPCR.

[2] = biological target: T2, KIT (V559D) (Homo sapiens, UniProt P10721, V559D); experiment: KINOMEscan competition binding screen, KIT (V559D); conditions: for remaining binding at 10 µM: read-out: % Ctrl @ 10 μM
T2 construct: purchased Eurofins DiscoverX Corporation
T2 sequence (P10721 26-976 V559D): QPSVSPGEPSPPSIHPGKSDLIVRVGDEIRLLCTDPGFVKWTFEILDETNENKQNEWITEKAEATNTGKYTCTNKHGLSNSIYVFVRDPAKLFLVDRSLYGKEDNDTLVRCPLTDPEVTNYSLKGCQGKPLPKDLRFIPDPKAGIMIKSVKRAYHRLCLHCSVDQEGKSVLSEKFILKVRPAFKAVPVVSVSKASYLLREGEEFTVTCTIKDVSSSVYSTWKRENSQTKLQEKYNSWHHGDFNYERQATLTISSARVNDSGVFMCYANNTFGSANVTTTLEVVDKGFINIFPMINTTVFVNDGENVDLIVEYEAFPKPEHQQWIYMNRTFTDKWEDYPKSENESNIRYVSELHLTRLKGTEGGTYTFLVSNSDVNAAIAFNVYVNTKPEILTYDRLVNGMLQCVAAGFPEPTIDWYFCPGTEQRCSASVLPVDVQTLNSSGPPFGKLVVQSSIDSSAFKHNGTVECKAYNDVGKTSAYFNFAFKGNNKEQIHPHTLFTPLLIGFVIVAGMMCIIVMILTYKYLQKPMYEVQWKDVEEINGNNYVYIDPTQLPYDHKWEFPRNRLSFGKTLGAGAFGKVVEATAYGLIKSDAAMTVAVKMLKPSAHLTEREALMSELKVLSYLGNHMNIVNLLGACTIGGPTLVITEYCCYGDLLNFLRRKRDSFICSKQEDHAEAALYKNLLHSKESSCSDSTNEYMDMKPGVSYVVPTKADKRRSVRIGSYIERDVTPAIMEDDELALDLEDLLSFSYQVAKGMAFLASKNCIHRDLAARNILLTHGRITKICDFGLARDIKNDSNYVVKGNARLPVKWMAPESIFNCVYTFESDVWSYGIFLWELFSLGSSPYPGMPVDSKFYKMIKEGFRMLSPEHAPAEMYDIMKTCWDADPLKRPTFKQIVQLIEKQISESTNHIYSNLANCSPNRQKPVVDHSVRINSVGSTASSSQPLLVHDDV
Procedure: as §1, §2, §3

[3] = biological target: T3, c-kit (Homo sapiens, UniProt P10721); experiment: KINASESEEKER competition binding assay, c-kit; conditions: minimum 8-point curve, duplicate
T3 construct: purchased Luceome Biotechnologies, LLC
T3 sequence (P10721 26-976): as the sequence (P10721 26-976 V559D) above, with D534V counted along it
Procedure: (§4) Kinase assays were performed using KINASESEEKER™ (Luceome Biotechnologies, LLC; Tucson, AZ). KINASESEEKER™ is a homogeneous competition binding assay in which the displacement of an active site-dependent probe by an inhibitor is measured by a change in luminescence signal. Luminescence readout translates into a highly sensitive and robust assay with low background and minimal interference from test compounds. See J. Am. Chem. Soc., 2010, 132, 11727-11735.
(§5) Stock solutions of compounds were serially diluted in DMSO to make assay stocks. Prior to initiating IC50 determination, the test compounds were evaluated for false positives against split-luciferase. The compounds were screened against kinases at a minimum of 8 different concentrations in duplicate. For kinase assays, a 24 μL aliquot of lysate containing Cfluc-kinase and Fos-Nfluc was incubated for 2 hours with either 1 μL of DMSO (for no-inhibitor control) or compound solution in DMSO in presence of a kinase specific probe. 80 μL of luciferin assay reagent was added to each solution and luminescence was immediately measured on a luminometer.
(§6) The % Inhibition and % Activity Remaining was calculated using the following equation: […]
(§7) The % Activity Remaining was plotted against compound concentration and the IC50 was determined for each compound using a minimum 8-point curve.

[4] = biological target: T4, KIT (A829P) (Homo sapiens, UniProt P10721, A829P); experiment: KINOMEscan competition binding screen, KIT (A829P); conditions: for remaining binding at 10 µM: read-out: % Ctrl @ 10 μM
T4 construct: purchased Eurofins DiscoverX Corporation
T4 sequence (P10721 26-976 A829P): as the sequence (P10721 26-976 V559D) above, with D534V, A804P counted along it
Procedure: as §1, §2, §3

[5] = biological target: T5, KIT (V559D, T670I) (Homo sapiens, UniProt P10721, T670I/V559D); experiment: KINOMEscan competition binding screen, KIT (V559D, T670I); conditions: for remaining binding at 10 µM: read-out: % Ctrl @ 10 μM
T5 construct: purchased Eurofins DiscoverX Corporation
T5 sequence (P10721 26-976 V559D/T670I): as the sequence (P10721 26-976 V559D) above, with T645I counted along it
Procedure: as §1, §2, §3

[6] = biological target: T6, DDR2 (Homo sapiens, UniProt Q16832); experiment: KINASESEEKER competition binding assay, DDR2; conditions: minimum 8-point curve, duplicate
T6 construct: purchased Luceome Biotechnologies, LLC
T6 sequence (Q16832 22-855): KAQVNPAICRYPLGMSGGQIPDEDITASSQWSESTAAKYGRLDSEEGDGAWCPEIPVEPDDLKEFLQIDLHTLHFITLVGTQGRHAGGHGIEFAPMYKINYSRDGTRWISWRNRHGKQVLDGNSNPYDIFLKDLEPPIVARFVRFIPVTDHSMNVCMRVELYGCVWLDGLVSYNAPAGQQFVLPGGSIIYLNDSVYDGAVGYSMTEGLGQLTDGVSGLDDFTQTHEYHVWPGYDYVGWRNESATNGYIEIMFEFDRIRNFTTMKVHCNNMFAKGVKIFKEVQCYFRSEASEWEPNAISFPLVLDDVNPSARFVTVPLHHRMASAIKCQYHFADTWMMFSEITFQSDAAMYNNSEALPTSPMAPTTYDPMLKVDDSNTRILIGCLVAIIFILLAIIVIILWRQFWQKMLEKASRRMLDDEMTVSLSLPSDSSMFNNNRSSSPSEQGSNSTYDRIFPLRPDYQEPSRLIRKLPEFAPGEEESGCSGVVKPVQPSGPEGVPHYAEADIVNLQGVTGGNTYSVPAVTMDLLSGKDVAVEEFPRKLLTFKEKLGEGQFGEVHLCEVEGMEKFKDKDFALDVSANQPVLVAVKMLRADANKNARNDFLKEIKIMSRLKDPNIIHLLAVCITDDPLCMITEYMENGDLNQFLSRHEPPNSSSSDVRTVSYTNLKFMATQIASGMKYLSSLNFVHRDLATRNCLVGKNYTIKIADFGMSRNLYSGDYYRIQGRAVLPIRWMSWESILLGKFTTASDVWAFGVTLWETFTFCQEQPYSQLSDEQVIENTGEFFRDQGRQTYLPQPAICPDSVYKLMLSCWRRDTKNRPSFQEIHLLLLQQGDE
Procedure: as §4, §5, §6, §7

[7] = biological target: T7, KIT (D816H) (Homo sapiens, UniProt P10721, D816H); experiment: KINOMEscan competition binding screen, KIT (D816H); conditions: for remaining binding at 10 µM: read-out: % Ctrl @ 10 μM
T7 construct: purchased Eurofins DiscoverX Corporation
T7 sequence (P10721 26-976 D816H): as the sequence (P10721 26-976 V559D) above, with D534V, D791H counted along it
Procedure: as §1, §2, §3

T1 sequence (P10721 26-976): as the sequence (P10721 26-976 V559D) above, with D534V counted along it

Compound	inhibition at 10 µM [1] [%]	remaining binding at 10 µM [1] [%]	inhibition at 10 µM [2] [%]	remaining binding at 10 µM [2] [%]	IC50 [3] [nM]	inhibition at 10 µM [4] [%]	remaining binding at 10 µM [4] [%]	inhibition at 10 µM [5] [%]	remaining binding at 10 µM [5] [%]	IC50 [6] [nM]	inhibition at 10 µM [7] [%]	remaining binding at 10 µM [7] [%]
Cc1cccc(-c2cc3nccc(Nc4ccccc4)c3s2)c1 [BK40143]	100	0	99.8	0.25	750 ± 110	48	52	81	19	6030 ± 930	54	46
COc1cccc(Nc2ccnc3cc(-c4cccc(C)c4)sc23)c1 [BK40195]	100	0	99.8	0.2	288 ± 23	93.7	6.3	97.5	2.5	1900 ± 260	93.9	6.1
Cc1cccc(-c2cc3nccc(Nc4cccc(O)c4)c3s2)c1 [BK40196]	100	0	100	0	276 ± 35	79	21	97.6	2.4	922 ± 130	94.1	3.9
Cc1cccc(-c2cc3nccc(N4CCOCC4)c3s2)c1 [BK40197]	97.7	0.3	99.7	0.35		0	100	80	20		0	100
